# Assay results as given in patent US11261211B2, “19-NOR neuroactive steroids and methods of use thereof” (Sage Therapeutics, Inc., priority 2013, dated 2022).
# Molecular target: α1β2γ2 GABAA receptor (Homo sapiens (Human), UniProt P14867+P47870)
# Test: Patch clamp electrophysiology of recombinant α1β2γ2 GABAA receptors in LTK cells
# Format: cell-based
# Settings: for activity at 10 µM / α1β2γ2 GABA Qpatch in Ltk (Efficacy at 10 μm): 10 μM compound, Qpatch, Ltk cells, GABA EC20 2 μM; for activity at 10 µM: read-out: α1β2γ2 GABA Qpatch in Ltk (Efficacy at 10 μm)
# Procedure: Cellular electrophysiology is used to measure the pharmacological properties of our GABAA receptor modulators in heterologous cell systems. Each compound is tested for its ability to affect GABA mediated currents at a submaximal agonist dose (GABA EC20=2 μM). LTK cells are stably transfected with the α1β2γ2 subunits of the GABA receptor and CHO cells are transiently transfected with the α4β3δ subunits via the Lipofecatamine method. Cells were passaged at a confluence of about 50-80% and then seeded onto 35 mm sterile culture dishes containing 2 ml culture complete medium without antibiotics or antimycotics. Confluent clusters of cells are electrically coupled (Pritchett et al., 1988). Because responses in distant cells are not adequately voltage clamped and because of uncertainties about the extent of coupling (Verdoorn et al., 1990), cells were cultivated at a density that enables the recording of single cells (without visible connections to other cells).
# Whole cell currents were measured with HEKA EPC-10 amplifiers using PatchMaster software or by using the high throughput QPatch platform (Sophion). Bath solution for all experiments contained (in mM): NaCl 137 mM, KCl 4 mM, CaCl2 1.8 mM, MgCl2 1 mM, HEPES 10 mM, D-Glucose 10 mM, pH (NaOH) 7.4. In some cases 0.005% cremophor was also added. Intracellular (pipette) solution contained: KCl 130 mM, MgCl2 1 mM, Mg-ATP 5 mM, HEPES 10 mM, EGTA 5 mM, pH 7.2. During experiments, cells and solutions were maintained at room temperature (19° C.-30° C.). For manual patch clamp recordings, cell culture dishes were placed on the dish holder of the microscope and continuously perfused (1 ml/min) with bath solution. After formation of a Gigaohm seal between the patch electrodes and the cell (pipette resistance range: 2.5 MΩ-6.0 MΩ; seal resistance range: >1 GΩ) the cell membrane across the pipette tip was ruptured to assure electrical access to the cell interior (whole-cell patch-configuration). For experiments using the QPatch system, cells were transferred as suspension to the QPatch system in the bath solution and automated whole cell recordings were performed.
# Cells were voltage clamped at a holding potential of −80 mV. For the analysis of test articles, GABA receptors were stimulated by 2 μM GABA after sequential pre-incubation of increasing concentrations of the test article. Pre-incubation duration was 30 s and the duration of the GABA stimulus was 2 s. Test articles were dissolved in DMSO to form stock solutions (10 mM). Test articles were diluted to 0.01, 0.1, 1, and 10 μM in bath solution. All concentrations of test articles were tested on each cell. The relative percentage potentiation was defined as the peak amplitude in response to GABA EC20 in the presence of the test article divided by the peak amplitude in response to GABA EC20 alone, multiplied by 100.
compound,measurement,setting,value
C[C@]12CC[C@H]3[C@@H](CC[C@@H]4C[C@@](O)(CF)CC[C@@H]43)[C@@H]1CC[C@@H]2C(=O)Cn1cc2ccncc2n1 [SA-85],activity at 10 µM,LTK,> 500%
C[C@]12CC[C@H]3[C@@H](CC[C@@H]4C[C@@](O)(C(F)F)CC[C@@H]43)[C@@H]1CC[C@@H]2C(=O)Cn1nc2ccccc2n1 [SA-92],activity at 10 µM,LTK,100 to 500%
C[C@@]1(O)CC[C@H]2[C@H](CC[C@@H]3[C@@H]2CC[C@]2(C)[C@@H](C(=O)Cn4nnc5ncccc54)CC[C@@H]32)C1 [SA-13],activity at 10 µM,LTK,> 500%
COC[C@@]1(O)CC[C@H]2[C@H](CC[C@@H]3[C@@H]2CC[C@]2(C)[C@@H](C(=O)Cn4ncc5ccncc54)CC[C@@H]32)C1 [SA-119],activity at 10 µM,LTK,> 500%
C[C@@]1(O)CC[C@H]2[C@H](CC[C@@H]3[C@@H]2CC[C@]2(C)[C@@H](C(=O)Cn4nnc5c(F)cccc54)CC[C@@H]32)C1 [SA-64],activity at 10 µM,LTK,100 to 500%
C[C@@]1(O)CC[C@H]2[C@H](CC[C@@H]3[C@@H]2CC[C@]2(C)[C@@H](C(=O)Cn4ncc5c4CCCC5)CC[C@@H]32)C1 [SA-8],α1β2γ2 GABA Qpatch in Ltk (Efficacy at 10 μm),,B (“B” indicates an efficacy value of >100-500%)
same,Emax,"LTK, potentiation of GABA EC20 (2 μM) current, read-out: GABAa alpha1 (α1β2γ2) Emax (%)",0 to 500%
same,EC50,"potentiation of GABA EC20 (2 μM) current, read-out: GABAa alpha1 (α1β2γ2)EC50",1000 to 2000 nM
C[C@@]1(O)CC[C@H]2[C@H](CC[C@@H]3[C@@H]2CC[C@]2(C)[C@@H](C(=O)Cn4ncc5cnccc54)CC[C@@H]32)C1 [SA-9],α1β2γ2 GABA Qpatch in Ltk (Efficacy at 10 μm),,B (“B” indicates an efficacy value of >100-500%)
CCOC[C@@]1(O)CC[C@H]2[C@@H](CC[C@@H]3[C@@H]2CC[C@]2(C)[C@@H](C(=O)Cn4nc5ccncc5n4)CC[C@@H]32)C1 [SB-59],activity at 10 µM,LTK,100 to 500%
C[C@@]1(O)CC[C@H]2[C@H](CC[C@@H]3[C@@H]2CC[C@]2(C)[C@@H](C(=O)Cn4cc5cc(C#N)ccc5n4)CC[C@@H]32)C1 [SA-37],activity at 10 µM,LTK,> 500%
COC[C@@]1(O)CC[C@H]2[C@@H](CC[C@@H]3[C@@H]2CC[C@]2(C)[C@@H](C(=O)Cn4nc5ccc(F)cc5n4)CC[C@@H]32)C1 [SB-41],activity at 10 µM,LTK,10 to 100%
C[C@@]1(O)CC[C@H]2[C@@H](CC[C@@H]3[C@@H]2CC[C@]2(C)[C@@H](C(=O)Cn4nc5ccc(F)cc5n4)CC[C@@H]32)C1 [SB-11],activity at 10 µM,LTK,100 to 500%
C[C@@]1(O)CC[C@H]2[C@H](CC[C@@H]3[C@@H]2CC[C@]2(C)[C@@H](C(=O)Cn4ncc5ccc(F)cc54)CC[C@@H]32)C1 [SA-23],activity at 10 µM,LTK,> 500%
CC[C@@]1(O)CC[C@H]2[C@H](CC[C@@H]3[C@@H]2CC[C@]2(C)[C@@H](C(=O)Cn4nnc5cnccc54)CC[C@@H]32)C1 [SA-112],activity at 10 µM,LTK,100 to 500%
Cc1cccc2c1nnn2CC(=O)[C@H]1CC[C@H]2[C@@H]3CC[C@@H]4C[C@](C)(O)CC[C@@H]4[C@H]3CC[C@]12C [SA-67],activity at 10 µM,LTK,> 500%
COc1cccc2nnn(CC(=O)[C@H]3CC[C@H]4[C@@H]5CC[C@@H]6C[C@](C)(O)CC[C@@H]6[C@H]5CC[C@]34C)c12 [SA-73],activity at 10 µM,LTK,100 to 500%
CC[C@@]1(O)CC[C@H]2[C@@H](CC[C@@H]3[C@@H]2CC[C@]2(C)[C@@H](C(=O)Cn4nnc5ccccc54)CC[C@@H]32)C1 [SB-35],activity at 10 µM,LTK,10 to 100%
COc1ccc2c(c1)nnn2CC(=O)[C@H]1CC[C@H]2[C@@H]3CC[C@H]4C[C@@](O)(CF)CC[C@@H]4[C@H]3CC[C@]12C [SG-23],activity at 10 µM,LTK,10 to 100%
COC[C@@]1(O)CC[C@H]2[C@@H](CC[C@@H]3[C@@H]2CC[C@]2(C)[C@@H](C(=O)Cn4nc5ccncc5n4)CC[C@@H]32)C1 [SB-44],activity at 10 µM,LTK,> 500%
CC[C@@]1(O)CC[C@H]2[C@@H](CC[C@@H]3[C@@H]2CC[C@]2(C)[C@@H](C(=O)Cn4nc5ccncc5n4)CC[C@@H]32)C1 [SB-34],activity at 10 µM,LTK,> 500%
C[C@@]1(O)CC[C@H]2[C@H](CC[C@@H]3[C@@H]2CC[C@]2(C)[C@@H](C(=O)Cn4nnc5cccc(Cl)c54)CC[C@@H]32)C1 [SA-77],activity at 10 µM,LTK,> 500%
COC[C@@]1(O)CC[C@H]2[C@@H](CC[C@@H]3[C@@H]2CC[C@]2(C)[C@@H](C(=O)Cn4nnc5ccccc54)CC[C@@H]32)C1 [SB-49],activity at 10 µM,LTK,100 to 500%
C[C@]12CC[C@H]3[C@@H](CC[C@H]4C[C@@](O)(CF)CC[C@@H]43)[C@@H]1CC[C@@H]2C(=O)Cn1nnc2ccncc21 [SB-26],activity at 10 µM,LTK,10 to 100%
COC[C@@]1(O)CC[C@H]2[C@H](CC[C@@H]3[C@@H]2CC[C@]2(C)[C@@H](C(=O)Cn4nnc5ccccc54)CC[C@@H]32)C1 [SA-115],activity at 10 µM,LTK,> 500%
C[C@]12CC[C@H]3[C@@H](CC[C@@H]4C[C@@](O)(C(F)F)CC[C@@H]43)[C@@H]1CC[C@@H]2C(=O)Cn1nc2ccc(F)cc2n1 [SA-104],activity at 10 µM,LTK,100 to 500%
Cc1nn(CC(=O)[C@H]2CC[C@H]3[C@@H]4CC[C@@H]5C[C@](C)(O)CC[C@@H]5[C@H]4CC[C@]23C)c2ccccc12 [SA-45],activity at 10 µM,LTK,> 500%
Cc1c2ccccc2nn1CC(=O)[C@H]1CC[C@H]2[C@@H]3CC[C@@H]4C[C@](C)(O)CC[C@@H]4[C@H]3CC[C@]12C [SA-46],activity at 10 µM,LTK,> 500%
C[C@@]1(O)CC[C@H]2[C@H](CC[C@@H]3[C@@H]2CC[C@]2(C)[C@@H](C(=O)Cn4nc(Cl)c5ccccc54)CC[C@@H]32)C1 [SA-55],activity at 10 µM,LTK,100 to 500%
C[C@@]1(O)CC[C@H]2[C@H](CC[C@@H]3[C@@H]2CC[C@]2(C)[C@@H](C(=O)Cn4nc5ccc(OC(F)(F)F)cc5n4)CC[C@@H]32)C1 [SA-72],activity at 10 µM,LTK,> 500%
C[C@@]1(O)CC[C@H]2[C@H](CC[C@@H]3[C@@H]2CC[C@]2(C)[C@@H](C(=O)Cn4nc5ccccc5c4O)CC[C@@H]32)C1 [SA-54],activity at 10 µM,LTK,> 500%
C[C@@]1(O)CC[C@H]2[C@H](CC[C@@H]3[C@@H]2CC[C@]2(C)[C@@H](C(=O)Cn4ncc5ccncc54)CC[C@@H]32)C1 [SA-21],α1β2γ2 GABA Qpatch in Ltk (Efficacy at 10 μm),,B (“B” indicates an efficacy value of >100-500%)
COC[C@@]1(O)CC[C@H]2[C@H](CC[C@@H]3[C@@H]2CC[C@]2(C)[C@@H](C(=O)Cn4ncc5ncccc54)CC[C@@H]32)C1 [SA-117],activity at 10 µM,LTK,> 500%
C[C@]12CC[C@H]3[C@@H](CC[C@@H]4C[C@@](O)(CF)CC[C@@H]43)[C@@H]1CC[C@@H]2C(=O)Cn1nc2ccc(F)cc2n1 [SA-89],activity at 10 µM,LTK,100 to 500%
C[C@@]1(O)CC[C@H]2[C@@H](CC[C@@H]3[C@@H]2CC[C@]2(C)[C@@H](C(=O)Cn4ncc5ncccc54)CC[C@@H]32)C1 [SB-5],α1β2γ2 GABA Qpatch in Ltk (Efficacy at 10 μm),,B (“B” indicates an efficacy value of >100-500%)
Cc1cc2cnn(CC(=O)[C@H]3CC[C@H]4[C@@H]5CC[C@@H]6C[C@](C)(O)CC[C@@H]6[C@H]5CC[C@]34C)c2cn1 [SA-25],activity at 10 µM,LTK,> 500%
CCOC[C@@]1(O)CC[C@H]2[C@@H](CC[C@@H]3[C@@H]2CC[C@]2(C)[C@@H](C(=O)Cn4cc5ncccc5n4)CC[C@@H]32)C1 [SB-55],activity at 10 µM,LTK,10 to 100%
COc1ccc2nnn(CC(=O)[C@H]3CC[C@H]4[C@@H]5CC[C@H]6C[C@@](O)(CF)CC[C@@H]6[C@H]5CC[C@]34C)c2c1 [SG-22],activity at 10 µM,LTK,100 to 500%
C[C@@]1(O)CC[C@H]2[C@H](CC[C@@H]3[C@@H]2CC[C@]2(C)[C@@H](C(=O)Cn4cc5cnccc5n4)CC[C@@H]32)C1 [SA-10],α1β2γ2 GABA Qpatch in Ltk (Efficacy at 10 μm),,C (“C” indicates an efficacy value of >500%)
CC[C@@]1(O)CC[C@H]2[C@H](CC[C@@H]3[C@@H]2CC[C@]2(C)[C@@H](C(=O)Cn4ncc5ncccc54)CC[C@@H]32)C1 [SA-111],activity at 10 µM,LTK,> 500%
CC[C@@]1(O)CC[C@H]2[C@@H](CC[C@@H]3[C@@H]2CC[C@]2(C)[C@@H](C(=O)Cn4cc5ncccc5n4)CC[C@@H]32)C1 [SB-29],activity at 10 µM,LTK,100 to 500%
C[C@]12CC[C@H]3[C@@H](CC[C@@H]4C[C@@](O)(C(F)F)CC[C@@H]43)[C@@H]1CC[C@@H]2C(=O)Cn1cc2ncccc2n1 [SA-93],activity at 10 µM,LTK,> 500%
C[C@@]1(O)CC[C@H]2[C@H](CC[C@@H]3[C@@H]2CC[C@]2(C)[C@@H](C(=O)Cn4ncc5ncc(Cl)cc54)CC[C@@H]32)C1 [SA-27],activity at 10 µM,LTK,> 500%
COC[C@@]1(O)CC[C@H]2[C@@H](CC[C@@H]3[C@@H]2CC[C@]2(C)[C@@H](C(=O)Cn4cc5ncccc5n4)CC[C@@H]32)C1 [SB-47],activity at 10 µM,LTK,> 500%
CC[C@@]1(O)CC[C@H]2[C@@H](CC[C@@H]3[C@@H]2CC[C@]2(C)[C@@H](C(=O)Cn4ncc5ccncc54)CC[C@@H]32)C1 [SB-32],activity at 10 µM,LTK,100 to 500%
